Where two headings read alike, the source gives them in different places.
Experiments:
human A2AAR = human A2AAR (Homo sapiens, UniProt P29274)
human A1AR = target: T1, human A1AR (Homo sapiens, UniProt P30542); settings: for Exp absolute binding affinity (ΔGbind): experimental, A1AR
T1 sequence (P30542 1-326): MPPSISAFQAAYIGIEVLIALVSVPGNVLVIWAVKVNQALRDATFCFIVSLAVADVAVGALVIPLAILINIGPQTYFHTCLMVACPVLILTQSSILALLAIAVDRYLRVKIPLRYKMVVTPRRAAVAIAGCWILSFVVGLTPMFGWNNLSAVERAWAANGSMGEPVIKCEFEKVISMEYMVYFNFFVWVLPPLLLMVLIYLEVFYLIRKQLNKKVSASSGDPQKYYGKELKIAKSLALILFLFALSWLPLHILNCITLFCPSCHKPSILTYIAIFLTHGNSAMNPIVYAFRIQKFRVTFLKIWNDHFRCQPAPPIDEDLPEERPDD

human A2BAR = target: T2, human A2BAR (Homo sapiens, UniProt P29275); settings: read-out: hA2B Ki; displacement of specific [3H]DPCPX binding, human HEK-293 cells, ± SEM, n = 3
T2 sequence (P29275 1-332): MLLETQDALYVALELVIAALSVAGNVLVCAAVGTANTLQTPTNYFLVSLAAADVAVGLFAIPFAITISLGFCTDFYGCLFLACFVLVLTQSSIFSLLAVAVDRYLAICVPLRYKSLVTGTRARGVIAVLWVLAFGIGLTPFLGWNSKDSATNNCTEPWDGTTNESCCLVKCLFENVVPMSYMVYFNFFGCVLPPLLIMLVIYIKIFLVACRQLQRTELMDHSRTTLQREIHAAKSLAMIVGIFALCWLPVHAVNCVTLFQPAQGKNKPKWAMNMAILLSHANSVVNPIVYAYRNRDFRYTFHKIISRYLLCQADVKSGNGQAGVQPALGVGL

[1] = read-out: hA2A Ki, displacement of specific [3H]ZM241385 binding, human HeLa cells, ± SEM, n = 3
[2] = read-out: hA1 Ki, displacement of specific [3H]DPCPX binding, human CHO cells, ± SEM, n = 3
[3] = read-out: ki_a2a, supplementary csv, unit inferred
[4] = read-out: ki_a1, supplementary csv, unit inferred

Sequence of human A2AAR (P29274 whole entry): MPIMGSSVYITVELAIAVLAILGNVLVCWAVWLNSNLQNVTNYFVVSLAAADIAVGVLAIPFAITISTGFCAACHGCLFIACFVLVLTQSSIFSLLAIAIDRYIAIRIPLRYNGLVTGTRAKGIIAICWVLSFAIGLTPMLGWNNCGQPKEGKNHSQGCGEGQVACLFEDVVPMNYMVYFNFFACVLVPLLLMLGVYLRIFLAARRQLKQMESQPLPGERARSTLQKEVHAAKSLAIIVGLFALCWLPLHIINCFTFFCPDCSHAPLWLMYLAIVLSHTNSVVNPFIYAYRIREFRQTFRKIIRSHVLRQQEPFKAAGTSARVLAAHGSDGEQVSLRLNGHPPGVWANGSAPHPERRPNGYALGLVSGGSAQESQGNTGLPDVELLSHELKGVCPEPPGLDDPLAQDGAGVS

Compound	Ki (human A2AAR; [1]) [nM]	Ki (human A1AR; [2]) [nM]	Ki (human A2BAR) [nM]	also measured
N#Cc1c(-c2ccccc2)nc(N)nc1-c1ccccc1 [18a]	18.6 ± 3.4	–	–	–
N#Cc1c(-c2ccccc2)nc(N)nc1-c1ccsc1 [18aa]	20.6 ± 2.7	5.25 ± 2.16	–	–
N#Cc1c(-c2ccccc2)nc(N)nc1-c1ccncc1 [18ab]	676 ± 27	216 ± 23	–	Ki (human A2AAR; [3]): 677 nM; Ki (human A1AR; [4]): 216 nM
N#Cc1c(-c2ccccc2)nc(N)nc1-c1cccnc1 [18ac]	36.4 ± 5.7	19.6 ± 1.47	–	–
N#Cc1c(-c2ccccc2)nc(N)nc1-c1ccc2ccccc2c1 [18af]	5.78 ± 1.16	8.27 ± 2.1	–	–
N#Cc1c(-c2ccccc2)nc(N)nc1-c1ccc(-c2ccccc2)cc1 [18ag]	–	6500 ± 451	–	–
N#Cc1c(-c2cccc(Cl)c2)nc(N)nc1-c1cccc(Cl)c1 [18ah]	35.3 ± 7.7	4.82 ± 0.37	73.6 ± 6.8	–
N#Cc1c(-c2cccc(Cl)c2)nc(N)nc1-c1cc(Cl)cc(Cl)c1 [18ai]	190 ± 22	7.81 ± 1.43	–	–
N#Cc1c(-c2cccc(Cl)c2)nc(N)nc1-c1ccc2c(c1)OCO2 [18aj]	101 ± 15	5.61 ± 0.74	386 ± 15	Ki (human A2AAR; [3]): 102 nM
N#Cc1c(-c2ccc(F)cc2)nc(N)nc1-c1ccc2c(c1)OCO2 [18ak]	61 ± 4.9	12.5 ± 2.3	–	–
COc1ccc(-c2nc(N)nc(-c3ccc(OC)cc3)c2C#N)cc1 [18al]	–	74.3 ± 3.4	–	–
N#Cc1c(-c2ccc(F)cc2)nc(N)nc1-c1ccco1 [18am]	5.72 ± 0.26	9.08 ± 1.16	13.9 ± 3.7	–
N#Cc1c(-c2ccccc2)nc(N)nc1-c1ccccc1F [18b]	17.6 ± 2.8	6.44 ± 1.25	–	–
COc1ccccc1-c1nc(N)nc(-c2ccccc2)c1C#N [18d]	17.7 ± 2.1	13.1 ± 3.2	–	–
N#Cc1c(-c2ccccc2)nc(N)nc1-c1cccc(F)c1 [18e]	19.5 ± 3.3	13.4 ± 4.1	186 ± 11	–
N#Cc1c(-c2ccccc2)nc(N)nc1-c1cccc(Cl)c1 [18f]	15.5 ± 2.4	4.25 ± 1.1	177 ± 13	–
COc1cccc(-c2nc(N)nc(-c3ccccc3)c2C#N)c1 [18g]	6.91 ± 1.52	2.08 ± 0.16	31.2 ± 6.3	–
N#Cc1c(-c2ccccc2)nc(N)nc1-c1cccc(O)c1 [18h]	10.2 ± 3.52	1.49 ± 0.43	50.1 ± 8.2	–
N#Cc1cccc(-c2nc(N)nc(-c3ccccc3)c2C#N)c1 [18i]	84.1 ± 11.7	6.49 ± 1.14	–	–
N#Cc1c(-c2ccccc2)nc(N)nc1-c1ccc(F)cc1 [18j]	16.3 ± 2.9	4.19 ± 1.16	–	–
N#Cc1c(-c2ccccc2)nc(N)nc1-c1ccc(Br)cc1 [18k]	21.9 ± 5	9.19 ± 2.81	–	–

Compound	Ki (human A2AAR; [1]) [nM]	Ki (human A1AR; [2]) [nM]	Ki (human A2BAR) [nM]	also measured
COc1ccc(-c2nc(N)nc(-c3ccccc3)c2C#N)cc1 [18l]	46 ± 3.2	7.16 ± 2.03	–	–
N#Cc1c(-c2ccccc2)nc(N)nc1-c1ccc(O)cc1 [18m]	26.5 ± 1.6	4.14 ± 0.55	–	–
Cc1ccc(-c2nc(N)nc(-c3ccccc3)c2C#N)cc1 [18n]	8.93 ± 0.12	5.38 ± 1.36	–	–
N#Cc1c(-c2ccccc2)nc(N)nc1-c1ccc(F)cc1F [18o]	15.5 ± 2.21	4 ± 1.82	–	–
COc1ccc(-c2nc(N)nc(-c3ccccc3)c2C#N)c(OC)c1 [18q]	10.2 ± 1.83	3.98 ± 0.74	–	–
N#Cc1c(-c2ccccc2)nc(N)nc1-c1cc(Cl)cc(Cl)c1 [18s]	95.4 ± 16.5	15.9 ± 2.11	–	–
COc1cc(OC)cc(-c2nc(N)nc(-c3ccccc3)c2C#N)c1 [18t]	1.73 ± 0.33	2.58 ± 0.67	45.1 ± 3.7	–
N#Cc1c(-c2ccccc2)nc(N)nc1-c1ccc2c(c1)OCO2 [18u]	10.2 ± 1.09	–	43.3 ± 4.2	–
COc1cc(-c2nc(N)nc(-c3ccccc3)c2C#N)cc(OC)c1OC [18v]	0.95 ± 0.07	2.58 ± 0.05	–	–
N#Cc1c(-c2ccccc2)nc(N)nc1-c1ccco1 [18x]	10.1 ± 3.7	9.7 ± 1.2	21.8 ± 2.7	–
N#Cc1c(-c2ccccc2)nc(N)nc1-c1cccs1 [18y]	24.9 ± 4.6	17.3 ± 4.4	40.6 ± 3.7	–
N#Cc1c(-c2ccccc2)nc(N)nc1-c1ccoc1 [18z]	52.1 ± 5.1	18.7 ± 3.4	–	–
CNc1nc(-c2ccccc2)c(C#N)c(-c2ccccc2)n1 [19a]	711 ± 43	9.14 ± 2.21	–	Exp relative binding affinity (ΔΔGbind) (human A1AR; Lig 2 relative to Lig 1 = 19ad): -0.66 kcal/mol; Exp absolute binding affinity (ΔGbind) (human A1AR): -10.96 kcal/mol
CNc1nc(-c2ccccc2)c(C#N)c(-c2ccc(OC)cc2)n1 [19ab]	–	57.5 ± 2.7	–	Exp absolute binding affinity (ΔGbind) (human A1AR): -9.87 kcal/mol
COc1ccc(-c2nc(Nc3ccccc3)nc(-c3ccccc3)c2C#N)cc1 [19ac]	51.4 ± 3.7	–	186 ± 15	–
CNc1nc(-c2ccccc2)c(C#N)c(-c2ccc(C)cc2)n1 [19ad]	–	28 ± 9.3	474 ± 32	Exp absolute binding affinity (ΔGbind) (human A1AR): -10.30 kcal/mol
Cc1ccc(-c2nc(Nc3ccccc3)nc(-c3ccccc3)c2C#N)cc1 [19ae]	157 ± 16	37.9 ± 5.7	–	Ki (human A2AAR; [3]): 158 nM
CCNc1nc(-c2ccccc2)c(C#N)c(-c2cc(Cl)cc(Cl)c2)n1 [19ak]	–	135 ± 20	–	Ki (human A1AR; [4]): 136 nM
CNc1nc(-c2ccccc2)c(C#N)c(-c2cc(OC)cc(OC)c2)n1 [19am]	11.5 ± 4.7	11 ± 0.8	60 ± 5.1	Exp relative binding affinity (ΔΔGbind) (human A1AR; Lig 2 relative to Lig 1 = 19a): 0,11 kcal/mol; Exp relative binding affinity (ΔΔGbind) (human A1AR; Lig 2 relative to Lig 1 = 19ab): -0.98 kcal/mol; Exp absolute binding affinity (ΔGbind) (human A1AR): -10.85 kcal/mol
COc1cc(OC)cc(-c2nc(Nc3ccccc3)nc(-c3ccccc3)c2C#N)c1 [19an]	17.3 ± 1.9	–	64 ± 9.6	–
CCNc1nc(-c2ccccc2)c(C#N)c(-c2ccc3c(c2)OCO3)n1 [19ap]	894 ± 42	6.7 ± 0.67	217 ± 18	Ki (human A2AAR; [3]): 895 nM

Compound	Ki (human A2AAR; [1]) [nM]	Ki (human A1AR; [2]) [nM]	Ki (human A2BAR) [nM]	also measured
CNc1nc(-c2ccccc2)c(C#N)c(-c2cc(OC)c(OC)c(OC)c2)n1 [19ar]	3.63 ± 0.88	11.7 ± 3.1	–	–
COc1cc(-c2nc(Nc3ccccc3)nc(-c3ccccc3)c2C#N)cc(OC)c1OC [19as]	15.8 ± 3.7	76.5 ± 9.1	–	–
CNc1nc(-c2ccccc2)c(C#N)c(-c2ccco2)n1 [19at]	401 ± 25	6.66 ± 2.4	–	Ki (human A2AAR; [3]): 402 nM; Exp relative binding affinity (ΔΔGbind) (human A1AR; Lig 2 relative to Lig 1 = 19a): -0.19 kcal/mol; Exp relative binding affinity (ΔΔGbind) (human A1AR; Lig 2 relative to Lig 1 = 19ax): -4.33 kcal/mol; Exp absolute binding affinity (ΔGbind) (human A1AR): -11.15 kcal/mol
N#Cc1c(-c2ccccc2)nc(Nc2ccccc2)nc1-c1cccs1 [19aw]	330 ± 27	42.3 ± 4.6	–	–
CNc1nc(-c2ccccc2)c(C#N)c(-c2ccoc2)n1 [19ax]	–	–	–	Exp absolute binding affinity (ΔGbind) (human A1AR): -6.82 kcal/mol
N#Cc1c(-c2ccccc2)nc(Nc2ccccc2)nc1-c1ccoc1 [19ay]	368	–	–	–
CCNc1nc(-c2ccccc2)c(C#N)c(-c2ccccc2)n1 [19b]	357 ± 21	5.82 ± 1.16	–	–
N#Cc1c(-c2ccccc2)nc(Nc2ccccc2)nc1-c1ccsc1 [19ba]	102 ± 27	–	–	–
CNc1nc(-c2ccccc2)c(C#N)c(-c2ccncc2)n1 [19bb]	–	56.9 ± 6.7	–	Exp relative binding affinity (ΔΔGbind) (human A1AR; Lig 2 relative to Lig 1 = 19a): 1.08 kcal/mol; Exp absolute binding affinity (ΔGbind) (human A1AR): -9.88 kcal/mol
N#Cc1c(-c2ccccc2)nc(Nc2ccccc2)nc1-c1cccnc1 [19bf]	27.1 ± 5.7	–	29.4 ± 4	–
N#Cc1c(-c2ccccc2)nc(Nc2ccccc2)nc1-c1ccccc1 [19c]	55.1 ± 4.3	45.6 ± 6.7	–	–
CNc1nc(-c2ccccc2)c(C#N)c(-c2ccccc2F)n1 [19d]	–	29.5 ± 2.3	47.8 ± 3.8	Exp relative binding affinity (ΔΔGbind) (human A1AR; Lig 2 relative to Lig 1 = 19a): 0.69 kcal/mol; Exp absolute binding affinity (ΔGbind) (human A1AR): -10.27 kcal/mol
CNc1nc(-c2ccccc2)c(C#N)c(-c2cccc(F)c2)n1 [19j]	–	28.5 ± 2.7	358 ± 27	Exp relative binding affinity (ΔΔGbind) (human A1AR; Lig 2 relative to Lig 1 = 19a): 0.67 kcal/mol; Exp relative binding affinity (ΔΔGbind) (human A1AR; Lig 2 relative to Lig 1 = 19s): 1.34 kcal/mol; Exp relative binding affinity (ΔΔGbind) (human A1AR; Lig 2 relative to Lig 1 = 19v): 0.12 kcal/mol; Exp absolute binding affinity (ΔGbind) (human A1AR): -10.29 kcal/mol
CCNc1nc(-c2ccccc2)c(C#N)c(-c2cccc(Cl)c2)n1 [19m]	295 ± 27	5.1 ± 1.8	–	–
N#Cc1c(-c2ccccc2)nc(Nc2ccccc2)nc1-c1cccc(Cl)c1 [19n]	46.3 ± 2.5	–	–	–
CNc1nc(-c2ccccc2)c(C#N)c(-c2cccc(O)c2)n1 [19o]	105 ± 8	2.48 ± 0.71	–	–
CNc1nc(-c2ccccc2)c(C#N)c(-c2cccc(OC)c2)n1 [19q]	82.6 ± 4.9	13.2 ± 4.1	–	–
COc1cccc(-c2nc(Nc3ccccc3)nc(-c3ccccc3)c2C#N)c1 [19r]	133 ± 11	95.5 ± 11.7	–	–
N#Cc1cccc(-c2nc(Nc3ccccc3)nc(-c3ccccc3)c2C#N)c1 [19u]	–	18.2 ± 3.1	16.4 ± 2.2	–
N#Cc1c(-c2ccccc2)nc(Nc2ccccc2)nc1-c1ccc(F)cc1 [19w]	–	36.3 ± 4.1	51.7 ± 3.1	–

Source: PMC8842224 (Journal of Medicinal Chemistry, 2022)
